Entries after “also recorded” stand apart in the source; their conditions may differ. Where two headings read alike, the source gives them in different places.
What was measured:
HERV-K viral transcripts = experiment: HERV-K activation in human neuronal cultures after neuronal injury (viral transcripts); assay type: cell-based; conditions: human neurons; 3 mM 3-nitropropionic acid, 100 μM N-methyl-D-aspartate or 100 μM hydrogen peroxide, 18 hours
[1] = tested on: HERV-K reverse transcriptase; experiment: HERV-K RT activity in a cell-free system (PERT assay); assay type: biochemical, human endogenous retrovirus-K (HERV-K); conditions: inhibitor added to extracted HERV-K RT just prior to PERT assay
VSV-G pseudotyped HERV-K = experiment: cells; assay type: cell-based, human endogenous retrovirus-K (HERV-K); conditions: for IC90: Homo sapiens, HeLa, 144 h, read-out: IC90, HERV-K replication (gag RNA by qPCR)
HERV-K protease = experiment: HERV-K viral production from pCD-HK/Rev transfected HeLa cells with protease inhibitors (PERT assay of supernatant); assay type: cell-based, human endogenous retrovirus-K (HERV-K); conditions: for IC90: Homo sapiens; for inhibition of HERV-K viral production (in words): inhibitors added 6 hr after transfection, PERT assay
[2] = 2-fold serial dilution 31.25 nM to 1 μM
[3] = 2-fold serial dilution 31.25 nM to 1 μM, PERT 48 hrs, read-out: IC90, HERV-K viral production
[4] = 10-fold serial dilution 0.001 μM-100 μM, PERT 48 hr post-treatment, read-out: IC90, HERV-K protease / viral production, extensive dose-response

Question: How did the “activation of HERV-K (viral transcripts)” value (HERV-K viral transcripts) turn out when `O=C(O)CC[N+](=O)[O-]` [3-nitropropionic acid] was run?
Answer: No activation of HERV-K

Question: What does the source list for `Nc1nc(NC2CC2)c2ncn([C@H]3C=C[C@@H](CO)C3)c2n1` [Abacavir]?
Answer: inhibition of HERV-K RT activity [1]: significant and dose-dependent inhibition; inhibition of HERV-K replication (in words) (VSV-G pseudotyped HERV-K): effectively block; also recorded: inhibited HERV-K replication in a dose-dependent manner; also recorded: effectively inhibited; IC90 (VSV-G pseudotyped HERV-K): 175 nM

Question: Which “rank among the HIV protease inhibitors tested” value (HERV-K protease; [2]) does the source give for `CC(C)CN(C[C@@H](O)[C@H](Cc1ccccc1)NC(=O)O[C@H]1CO[C@H]2OCC[C@H]21)S(=O)(=O)c1ccc(N)cc1` [Darunavir] here?
Answer: highest efficacy; also recorded: two most potent drugs

Question: And the IC90 (HERV-K protease; [3])?
Answer: ~100 nM

Question: What about the IC90 (HERV-K protease; [4]) of the same compound?
Answer: 71 nM

Question: What about the “inhibition of HERV-K viral production (in words)” value (HERV-K protease) of the same compound?
Answer: inhibited HERV-K protease in a dose-dependent manner

Question: Which “inhibition of HERV-K RT activity” value [1] does the source give for `O=C1Nc2ccc(Cl)cc2[C@@](C#CC2CC2)(C(F)(F)F)O1` [Efirvarenz] here?
Answer: significant inhibition

Question: Which “inhibition of HERV-K RT activity” value [1] does the source give for `Cc1cc(C#N)cc(C)c1Oc1nc(Nc2ccc(C#N)cc2)nc(N)c1Br` [Etravirine] here?
Answer: significant inhibition

Question: What does the source list for `Cc1cccc(C)c1OCC(=O)N[C@@H](Cc1ccccc1)[C@@H](O)C[C@H](Cc1ccccc1)NC(=O)[C@H](C(C)C)N1CCCNC1=O` [Lopinavir]?
Answer: rank among the HIV protease inhibitors tested (HERV-K protease; [2]): highest efficacy; also recorded: two most potent drugs; IC90 (HERV-K protease; [3]): ~100 nM; IC90 (HERV-K protease; [4]): 651 nM; inhibition of HERV-K viral production (in words) (HERV-K protease): inhibited HERV-K protease in a dose-dependent manner

Question: With `CN[C@H](CC(=O)O)C(=O)O` [N-methyl-D-aspartate] as the compound, how does the “activation of HERV-K (viral transcripts)” value (HERV-K viral transcripts) read?
Answer: No activation of HERV-K

Question: For `Cc1ccnc2c1NC(=O)c1cccnc1N2C1CC1` [Nevirapine], which “inhibition of HERV-K RT activity” value [1] is on record?
Answer: significant inhibition

Question: `Cc1nnc(C(=O)NC(C)(C)c2nc(C(=O)NCc3ccc(F)cc3)c(O)c(=O)n2C)o1` [Raltegravir] was tested. Which “inhibition of HERV-K replication (in words)” value (VSV-G pseudotyped HERV-K) did it give?
Answer: effectively block; also recorded: inhibited the replication of HERV-K in a dose-dependent manner; also recorded: effectively inhibited

Question: And the IC90 (VSV-G pseudotyped HERV-K)?
Answer: 75 nM

Question: How did the “inhibition of HERV-K RT activity” value [1] turn out when `Cc1cn([C@H]2C=C[C@@H](CO)O2)c(=O)[nH]c1=O` [Stavudine] was run?
Answer: significant and dose-dependent inhibition

Question: For `C[C@H](Cn1cnc2c(N)ncnc21)OCP(=O)(O)O` [Tenofovir], which “inhibition of HERV-K RT activity” value [1] is on record?
Answer: significant and dose-dependent inhibition

Question: `Cc1cn([C@H]2C[C@H](N=[N+]=[N-])[C@@H](CO)O2)c(=O)[nH]c1=O` [Zidovudine] was tested. Which “inhibition of HERV-K RT activity” value [1] did it give?
Answer: significant and dose-dependent inhibition

Question: And the “inhibition of HERV-K replication (in words)” value (VSV-G pseudotyped HERV-K)?
Answer: effectively block; also recorded: inhibited HERV-K replication in a dose-dependent manner; also recorded: effectively inhibited

Question: And the IC90 (VSV-G pseudotyped HERV-K)?
Answer: 70 nM

Question: Which “activation of HERV-K (viral transcripts)” value (HERV-K viral transcripts) does the source give for `OO` [hydrogen peroxide] here?
Answer: No activation of HERV-K

Reference: US20190038659A1, “METHODS OF TREATING AND PREVENTING AMYOTROPHIC LATERAL SCLEROSIS” (priority 2015, published 2019)
